Assay: xn = mol fraction of the nth substance listed
Conditions: 101 kPa, Liquid; for speed of sound: Frequency=2 MHz, Sing-around technique in a fixed-path interferometer; for viscosity: Oscillating disk viscometry; for mass density: Vibrating tube method

OC1CCCCC1 [cyclohexanol] + CN1CCCC1=O
Conditions	mass density [kg/m3]	speed of sound [m/s]	viscosity [mPa·s]
303.15 K, x2 = 0	941.32	1443.2	41.07
303.15 K, x2 = 0.1088	952.25	1462.3	36.8
303.15 K, x2 = 0.2155	962.68	1480.5	32.6
303.15 K, x2 = 0.3201	973.14	1495.7	28.48
303.15 K, x2 = 0.4228	983.38	1508.8	24.44
303.15 K, x2 = 0.5235	992.24	1520.5	20.47
303.15 K, x2 = 0.6223	999.61	1530.5	16.55
303.15 K, x2 = 0.7194	1005.72	1538.4	12.7
303.15 K, x2 = 0.8146	1011.65	1544.3	8.912
303.15 K, x2 = 0.9081	1017.47	1549.2	5.186
308.15 K, x2 = 0	937.23	1419.6	27.95
308.15 K, x2 = 0.1088	948.65	1440.8	25.09
308.15 K, x2 = 0.2155	959.48	1458.7	22.27
308.15 K, x2 = 0.3201	970.04	1473.4	19.52
308.15 K, x2 = 0.4228	979.96	1486.2	16.81
308.15 K, x2 = 0.5235	988.83	1497.5	14.15
308.15 K, x2 = 0.6223	996.39	1506.9	11.52
308.15 K, x2 = 0.7194	1002.69	1515.1	8.928
308.15 K, x2 = 0.8146	1008.39	1521.2	6.381
308.15 K, x2 = 0.9081	1014.23	1525.2	3.878
313.15 K, x2 = 0	933.48	1395.2	16.66
313.15 K, x2 = 0.1088	945.29	1418.3	15.01
313.15 K, x2 = 0.2155	956.55	1436.2	13.39
313.15 K, x2 = 0.3201	967.18	1450.8	11.81
313.15 K, x2 = 0.4228	976.72	1463.7	10.25
313.15 K, x2 = 0.5235	985.29	1475.1	8.714
313.15 K, x2 = 0.6223	992.87	1484.6	7.194
313.15 K, x2 = 0.7194	999.41	1492.4	5.69
313.15 K, x2 = 0.8146	1005.24	1498.2	4.211
313.15 K, x2 = 0.9081	1010.33	1500.6	2.76
318.15 K, x2 = 0	928.11	1370.8	8.888
318.15 K, x2 = 0.1088	940.43	1395.7	8.064
318.15 K, x2 = 0.2155	952.24	1413.7	7.26
318.15 K, x2 = 0.3201	963.21	1428.6	6.472
318.15 K, x2 = 0.4228	972.85	1441.9	5.694
318.15 K, x2 = 0.5235	981.32	1453.3	4.926
318.15 K, x2 = 0.6223	988.87	1462.8	4.163
318.15 K, x2 = 0.7194	995.46	1471.1	3.406
318.15 K, x2 = 0.8146	1001.47	1476.7	2.658
318.15 K, x2 = 0.9081	1006.79	1477.6	1.924

C1=CCCCC1 [cyclohexene] + CN1CCCC1=O
Conditions	mass density [kg/m3]	speed of sound [m/s]	viscosity [mPa·s]
303.15 K, x2 = 0	801.81	1252.1	0.581
303.15 K, x2 = 0.1052	818.56	1267.5	0.612
303.15 K, x2 = 0.2091	834.84	1285.6	0.653
303.15 K, x2 = 0.3119	851.21	1307.1	0.698
303.15 K, x2 = 0.4135	868.75	1330.4	0.748
303.15 K, x2 = 0.514	889.05	1356.2	0.812
303.15 K, x2 = 0.6134	912.45	1384.5	0.897
303.15 K, x2 = 0.7116	938.12	1417.6	1.009
303.15 K, x2 = 0.8088	964.81	1456.8	1.148
303.15 K, x2 = 0.9049	992.11	1502.7	1.315
308.15 K, x2 = 0	797.25	1224.8	0.549
308.15 K, x2 = 0.1052	811.04	1240.5	0.579
308.15 K, x2 = 0.2091	827.32	1258.2	0.618
308.15 K, x2 = 0.3119	844.1	1278.6	0.663
308.15 K, x2 = 0.4135	862.03	1301.5	0.715
308.15 K, x2 = 0.514	882.54	1326.4	0.775
308.15 K, x2 = 0.6134	906.06	1355.1	0.853
308.15 K, x2 = 0.7116	931.63	1388.3	0.954
308.15 K, x2 = 0.8088	957.89	1426.8	1.081
308.15 K, x2 = 0.9049	985.56	1472.5	1.235
313.15 K, x2 = 0	792.61	1196.6	0.516
313.15 K, x2 = 0.1052	804.12	1212.4	0.551
313.15 K, x2 = 0.2091	819.12	1230.5	0.587
313.15 K, x2 = 0.3119	836.04	1250.4	0.63
313.15 K, x2 = 0.4135	854.81	1273.5	0.68
313.15 K, x2 = 0.514	875.73	1298.8	0.742
313.15 K, x2 = 0.6134	899.06	1327.1	0.818
313.15 K, x2 = 0.7116	924.14	1360.3	0.914
313.15 K, x2 = 0.8088	950.51	1398.7	1.031
313.15 K, x2 = 0.9049	979.38	1444.1	1.171
318.15 K, x2 = 0	788.02	1169.6	0.488
318.15 K, x2 = 0.1052	798.05	1185.2	0.522
318.15 K, x2 = 0.2091	813.05	1202.2	0.558
318.15 K, x2 = 0.3119	829.52	1222.2	0.597
318.15 K, x2 = 0.4135	847.61	1245.2	0.642
318.15 K, x2 = 0.514	868.15	1270.4	0.698
318.15 K, x2 = 0.6134	891.64	1298.6	0.771
318.15 K, x2 = 0.7116	917.16	1330.3	0.856
318.15 K, x2 = 0.8088	943.71	1369.2	0.956
318.15 K, x2 = 0.9049	972.27	1416.1	1.072

NC1CCCCC1 [cyclohexylamine] + CN1CCCC1=O
Conditions	mass density [kg/m3]	speed of sound [m/s]	viscosity [mPa·s]
303.15 K, x2 = 0	857.71	1397.8	1.797
303.15 K, x2 = 0.1171	877.49	1424.2	1.791
303.15 K, x2 = 0.2299	896.91	1448.4	1.789
303.15 K, x2 = 0.3385	915.83	1469.1	1.784
303.15 K, x2 = 0.4432	933.86	1487.8	1.773
303.15 K, x2 = 0.5442	950.84	1504.3	1.754
303.15 K, x2 = 0.6417	966.69	1518.1	1.727
303.15 K, x2 = 0.7358	981.66	1530.2	1.693
303.15 K, x2 = 0.8268	995.81	1540.3	1.648
303.15 K, x2 = 0.9149	1009.73	1548.2	1.592
308.15 K, x2 = 0	853.14	1379.2	1.704
308.15 K, x2 = 0.1171	873.25	1406.8	1.69
308.15 K, x2 = 0.2299	892.71	1429.4	1.678
308.15 K, x2 = 0.3385	911.69	1449.1	1.668
308.15 K, x2 = 0.4432	929.76	1467.1	1.655
308.15 K, x2 = 0.5442	946.83	1483.1	1.636
308.15 K, x2 = 0.6417	962.86	1496.5	1.607
308.15 K, x2 = 0.7358	977.92	1507.7	1.569
308.15 K, x2 = 0.8268	992.5	1517.2	1.522
308.15 K, x2 = 0.9149	1006.41	1524.6	1.47
313.15 K, x2 = 0	848.61	1360.6	1.617
313.15 K, x2 = 0.1171	869.06	1389.2	1.6
313.15 K, x2 = 0.2299	888.52	1411.4	1.588
313.15 K, x2 = 0.3385	907.42	1430.5	1.575
313.15 K, x2 = 0.4432	925.48	1447.6	1.56
313.15 K, x2 = 0.5442	942.64	1462.5	1.541
313.15 K, x2 = 0.6417	958.87	1475.1	1.514
313.15 K, x2 = 0.7358	974.13	1485.7	1.477
313.15 K, x2 = 0.8268	988.74	1494.6	1.432
313.15 K, x2 = 0.9149	1002.53	1500.8	1.38
318.15 K, x2 = 0	844.07	1342	1.506
318.15 K, x2 = 0.1171	864.89	1371.7	1.484
318.15 K, x2 = 0.2299	884.43	1393.8	1.463
318.15 K, x2 = 0.3385	903.34	1412.2	1.442
318.15 K, x2 = 0.4432	921.45	1428.7	1.422
318.15 K, x2 = 0.5442	938.47	1443.2	1.401
318.15 K, x2 = 0.6417	954.68	1455.4	1.375
318.15 K, x2 = 0.7358	970.14	1465.4	1.341
318.15 K, x2 = 0.8268	984.78	1473.6	1.298
318.15 K, x2 = 0.9149	998.55	1477.8	1.251
